Measured values as given in patent publication US12622944B2, “Compositions containing, methods involving, and uses of non-natural amino acid linked dolastatin derivatives” (priority 2011, dated 2026).
Where two headings read alike, the source gives them in different places.

Columns and labels:
[1] = tested on: HCC1954 (human breast carcinoma) xenograft; assay: In vivo anti-tumor efficacy in HCC1954 xenograft, SCID-bg mice; settings: 25 mg/kg iv qod × 5; day 28; HCC1954 study
Description: HCC1954 (human breast carcinoma) cells were obtained from American Type Culture Collection (Manassas, VA) and cultured in RPMI+10% FBS, 37° C., 5% CO2 until 80% confluent. Cells were harvested by trypsinization and suspended in PBS at 1×10^8 cells/mL.
Female, SCID-beige mice, 5-8 weeks old, were obtained from Charles River Laboratories. HCC1954 cells (human, breast carcinoma, ATCC, #CRL-2338) were mixed 1:1 with Matrigel (BD Biosciences, Bedford MA) and injected subcutaneously into the mice. When tumors reached an average size of 100-200 mm^3, mice were sorted into groups of 9-10 mice each. Caliper measurements were taken twice weekly until the end of the study. To estimate tumor volume, two orthogonal diameters were measured with calipers and the values entered into the formula, (L×W×W)/2=V, (where W=the shortest diameter, L=the longest diameter and V-volume), to obtain an estimated volume. The tumor volume was converted to tumor weight in the Excel data file by assuming 1 mm^3=1 mg. Endpoint was based on a study design of tumor growth inhibition (TGI). When the mean tumor volume of the control group reached approx. 1,000 mm^3 all mice were euthanized or day 28, whichever came first. […]
HCC1954 cells were utilized for this study with 10 cells/mouse in Matrigel, SC in the right flank. […] Tumor volume was monitored until the endpoint was reached (1,000 mm^3 or 60 days). […]

BT474 = assay: In vitro inhibition of proliferation assay (WST-8), BT474; assay type: cell-based
Description: (§1) At day 1, the cells were seeded. The media was aspirated and the T-225 culture flasks of cells was rinsed with 30 mL PBS−/. PBS was aspirated and 6 mL of 0.25% Trypsin-EDTA was added to each flask. The flasks were incubated at 37° C., 5% CO2 for 2-5 minutes. Adherent cells were dislodged by hitting flask and trypsin was neutralized by adding 14 mL culture medium. The cell suspension was mixed and transferred to a 50 mL conical tube. The cells were spun down at 1200 rpm, 5 min, room temperature. The resultant cell pellet was resuspended in 12 mL of culture medium. The cells were counted in a hemacytometer. Cells were seeded at appropriate cell densities into 96-well flat-bottom, clear plates and incubated overnight at 37° C., 5% CO2 to allow cells to attach. Plating volume was 80 uL/well. 80 uL/well of culture medium was utilized as the “no cell” control.
(§2) Cell plating density examples include: • BT474 (high Her2)—20,000 cells/well in F12k/DMEM (50/50), 10% FBS, P/S • MDA-MB-468 (Her2 negative)-6,000 cells/well in F12k/DMEM (50/50), 10% FBS, P/S • HCC1954—5,000 cells/well in RPMI 1640, 10% FBS, P/S • SKOV-3—6,000 cells/well in RPMI 1640, 10% FBS, P/S • HT29—20,000 cells/well in McCoy's 5A, 10% FBS, P/S
(§3) At day 2, the test samples were added to the cells. The test samples were diluted in culture medium to a 9× stock concentration in Column 2 of a round-bottom 96-well plate. 3× serial dilutions were made from Column 2 to Column 11 with a multi-channel pipettor. 10 uL/well of the above samples was added in duplicate to the appropriate wells of the seeded plate. The total volume in the wells was about 90 uL/well. 10 uL/well of culture medium was added to avoid edge effects for sample wells. Media Control wells were included in the inner wells where no sample was added (just 10 uL/well of culture medium) to be used in proliferation calculations. The plates were incubated at 37° C., 5% CO2 for 72 hrs.
(§4) At day 5, proliferation readout occurred. […] The plates were measured for absorbance at OD 450 nm. […]

HCC1954 = assay: In vitro inhibition of proliferation assay (WST-8), HCC1954; assay type: cell-based, human; settings: read-out: IC50 Values [nM] after 72 hr drug treatment
Description: as §1, §2
(§5) At day 2, the test samples were added to the cells. […]
as §4

LS513 = assay: In vitro inhibition of proliferation assay (WST-8), LS513; assay type: cell-based; settings: Data Set I, experiment Sept. 4, 2010, read-out: IC50 Values [nM] after 72 hr drug treatment
Description: as §1
(§6) At day 2, the test samples were added to the cells. The test samples were diluted in culture medium to a 9× stock concentration in Column 2 of a round-bottom 96-well plate. 3× serial dilutions were made from Column 2 to Column 11 with a multi-channel pipettor. 10 uL/well of the above samples was added in duplicate to the appropriate wells of the seeded plate. The total volume in the wells was about 90 uL/well. […]
as §4

NCI-N87 = assay: In vitro inhibition of proliferation assay (WST-8), NCI-N87; assay type: cell-based; settings: Data Set I, experiment Sept. 4, 2010, read-out: IC50 Values [nM] after 72 hr drug treatment
Description: as §1, §6, §4

SKOV-3 = assay: In vitro inhibition of proliferation assay (WST-8), SKOV-3; assay type: cell-based
Description: as §1, §2, §3, §4

ZR-75-30 = assay: In vitro inhibition of proliferation assay (WST-8), ZR-75-30; assay type: cell-based; settings: Data Set I, experiment Sept. 4, 2010, read-out: IC50 Values [nM] after 72 hr drug treatment
Description: as §1, §6, §4

MDA-MB-175 = assay: In vitro inhibition of proliferation assay (WST-8), MDA-MB-175; assay type: cell-based; settings: Data Set I, experiment Sept. 13, 2010
Description: as §1, §6, §4

HT29 = assay: In vitro inhibition of proliferation assay (WST-8), HT29; assay type: cell-based; settings: Data Set II, experiment Sept. 24, 2010, read-out: IC50 Values [nM] after 72 hr drug treatment
Description: as §1, §2, §5, §4

MDA-MB-468 = assay: In vitro inhibition of proliferation assay (WST-8), MDA-MB-468; assay type: cell-based; settings: Data Set II, experiment Oct. 8, 2010, read-out: IC50 Values [nM] after 72 hr drug treatment
Description: as §1, §2, §5, §4

[2] = Data Set I, experiment Sept. 4, 2010, read-out: IC50 Values [nM] after 72 hr drug treatment
[3] = Data Set I, experiment Sept. 13, 2010, read-out: IC50 Values [nM] after 72 hr drug treatment

Molecule	Median Tumor Volume (mm3) [1] [mm3]	T/C (Treated/Control) [1]	IC50 (BT474; [2]) [nM]	IC50 (BT474; [3]) [nM]	IC50 (BT474; Data Set II, experiment Sept. 24, 2010, read-out: IC50 Values [nM] after 72 hr drug treatment) [nM]	IC50 (HCC1954; HCC1954, Data Set I, experiment Sept. 4, 2010) [nM]	IC50 (HCC1954; HCCI954, Data Set II, experiment Oct. 8, 2010) [nM]	IC50 (LS513) [nM]	IC50 (NCI-N87) [nM]	IC50 (SKOV-3; [2]) [nM]	IC50 (SKOV-3; [3]) [nM]	IC50 (SKOV-3; Data Set II, experiment Oct. 8, 2010, read-out: IC50 Values [nM] after 72 hr drug treatment) [nM]	IC50 (ZR-75-30) [nM]	IC50 Values [nM] after 72 hr drug treatment (MDA-MB-175)	IC50 (HT29) [nM]	IC50 (MDA-MB-468) [nM]
CC(=O)O[C@H]1C(=O)[C@@]2(C)[C@H]([C@H](OC(=O)c3ccccc3)[C@]3(O)C[C@H](OC(=O)[C@H](O)[C@@H](NC(=O)c4ccccc4)c4ccccc4)C(C)=C1C3(C)C)[C@]1(OC(C)=O)CO[C@@H]1C[C@@H]2O [paclitaxel]	18	0.037	–	–	–	–	–	–	–	–	–	–	–	–	–	–
Dolastatin	–	–	0.1	0.1	2.5	0.06	0.04	0.2	> 30	0.2	0.1	0.2	> 30	no fit	4	< 0.01
